Read-outs that look alike come from different tables or passages of the source.
Key:
U87MG cells = test: U87MG cell proliferation, MTS assay; type: cell-based, human; settings: for IC50: Homo sapiens, U-87 MG, 72 h, MTS assay
Protocol: The U87MG cell line was obtained from the National Institute for Cancer Research of Genoa (Italy) and cultured in DMEM 10% FBS and 2 mM glutamine. To isolate GSCs, approximately 2.0×10^6 cells were suspended in 1 mL of a defined serum-free Neural Stem Cell (NSC) medium (Daniele, S., et al., Modulation of A1 and A2B adenosine receptor activity: a new strategy to sensitise glioblastoma stem cells to chemotherapy. Cell death & disease, 2014. 5(11): p. e1539). After 3-4 days of culture, the neurospheres were collected, suspended in NSC medium, dissociated into single cells, and plated for the assays. For the long-term treatment of cells, NSC or complete medium containing drugs was replaced every two to three days.
The human U87MG cells or GSCs were seeded at a density of 3×10^3 cells/well. After 24 h, the cells were treated from one to seven days with fresh growth medium containing different concentrations of SA16, SA23 or IB35. Following the treatment period, cell proliferation was determined using the MTS assay according to manufacturer's instruction. The absorbance of formazan at […] was measured in a colorimetric assay with an automated plate reader (Victor Wallac 2, Perkin Elmer). The results were calculated by subtracting the mean background from the values obtained from each evaluation and were expressed as the percentage of the control (untreated cells). Sigmoid dose-response curve was generated, from which the IC50 values were derived.
As representative GBM cell line, the above U87MG cells were used; this human cell line resulted an appropriate model to study the effects of PDK1 inhibition, because it is deficient for the tumour suppressor phosphatase and tensin homologue (PTEN), a negative regulator of the PI3K/AKT pathway (Wang, S. I., et al., Somatic mutations of PTEN in glioblastoma multiforme. Cancer research, 1997. 57(19): p. 4183-4186). To examine the effects of SA16, SA23 and IB35 on GBM cell growth/survival, U87MG cells were incubated with different concentrations of the new compounds (1 nM-10 μM) for 24 and 72 h. Specifically, U87MG cells were treated in complete medium with different concentrations of SA16, SA23 or IB35 (1 nM-10 μM) for 24 h (A) or 72 h (B). At the end of treatment, cell proliferation was measured using the MTS assay. The data are expressed as a percentage with respect to that of untreated cells (control), which was set to 100%, and are the mean values±SEM of three independent experiments, each performed in duplicate. The significance of the differences reported in FIGS. 1 and 2 was determined with a one-way ANOVA with Bonferroni post-test (* p<0.05, **p<0.01, *** p<0.001 vs. control cells).

PDK1 Direct kinase = PDK1 Direct kinase (Homo sapiens (Human), UniProt O15530); test: Kinase-specific FRET-based Z'-LYTE assay against PDK1 Direct kinase; type: biochemical
Protocol: The compounds of Formula (I) and (II) were tested in the biological test named Kinase-specific Z′-LYTE® assay (Invitrogen Corporation, Life Technologies).

ROCK2 = ROCK2 (Homo sapiens (Human), UniProt O75116); test: IB35 kinases profiling at 100 nM (ZLYTE); type: biochemical; settings: IB35 100 nM, ATP Km app
Text: (§1) The results are reported below

MAPKAPK2 = MAPKAPK2 (Homo sapiens (Human), UniProt P49137); test: IB35 kinases profiling at 100 nM (ZLYTE); type: biochemical; settings: IB35 100 nM, ATP Km app
Text: as §1

RPS6KB1 (p70S6K) = RPS6KB1 (p70S6K) (Homo sapiens (Human), UniProt P23443); test: IB35 kinases profiling at 100 nM (ZLYTE); type: biochemical; settings: IB35 100 nM, ATP Km app
Text: as §1

GRK5 = GRK5 (Homo sapiens (Human), UniProt P34947); test: IB35 kinases profiling at 100 nM (ZLYTE); type: biochemical; settings: IB35 100 nM, ATP Km app
Text: as §1

CDK2/cyclin A = CDK2/cyclin A (Homo sapiens (Human), UniProt P24941); test: IB35 kinases profiling at 100 nM (ZLYTE); type: biochemical; settings: IB35 100 nM, ATP Km app
Text: as §1

CSNK2A2 (CK2 alpha 2) = CSNK2A2 (CK2 alpha 2) (Homo sapiens (Human), UniProt P19784); test: IB35 kinases profiling at 100 nM (ZLYTE); type: biochemical; settings: IB35 100 nM, ATP Km app
Text: as §1

GSK3A (GSK3 alpha) = GSK3A (GSK3 alpha) (Homo sapiens (Human), UniProt P49840); test: IB35 kinases profiling at 100 nM (ZLYTE); type: biochemical; settings: IB35 100 nM, ATP Km app
Text: as §1

ABL1 = ABL1 (Homo sapiens (Human), UniProt P00519); test: IB35 kinases profiling at 100 nM (ZLYTE); type: biochemical; settings: IB35 100 nM, ATP Km app
Text: as §1

[1] = molecular target: MAPK14 (p38 alpha) Direct (Homo sapiens (Human), UniProt Q16539); test: IB35 kinases profiling at 100 nM (ZLYTE); type: biochemical; settings: IB35 100 nM, ATP Km app
Text: as §1

MARK1 (MARK) = MARK1 (MARK) (Homo sapiens (Human), UniProt Q9P0L2); test: IB35 kinases profiling at 100 nM (ZLYTE); type: biochemical; settings: IB35 100 nM, ATP Km app
Text: as §1

SRC = SRC (Homo sapiens (Human), UniProt P12931); test: IB35 kinases profiling at 100 nM (ZLYTE); type: biochemical; settings: IB35 100 nM, ATP Km app
Text: as §1

CDK1/cyclin B = CDK1/cyclin B (Homo sapiens (Human), UniProt P06493); test: IB35 kinases profiling at 100 nM (ZLYTE); type: biochemical; settings: IB35 100 nM, ATP Km app
Text: as §1

CHEK1 (CHK1) = CHEK1 (CHK1) (Homo sapiens (Human), UniProt O14757); test: IB35 kinases profiling at 100 nM (ZLYTE); type: biochemical; settings: IB35 100 nM, ATP Km app
Text: as §1

AMPK A1/B1/G1 = AMPK A1/B1/G1 (Homo sapiens (Human), UniProt Q13131); test: IB35 kinases profiling at 100 nM (ZLYTE); type: biochemical; settings: IB35 100 nM, ATP Km app
Text: as §1

MAP2K2 (MEK2) = MAP2K2 (MEK2) (Homo sapiens (Human), UniProt P36507); test: IB35 kinases profiling at 100 nM (ZLYTE); type: biochemical; settings: IB35 100 nM, ATP 100
Text: as §1

[2] = read-out: IC50 (nM) PDK1 direct

GRK5, sequence (P34947 whole entry, species assumed): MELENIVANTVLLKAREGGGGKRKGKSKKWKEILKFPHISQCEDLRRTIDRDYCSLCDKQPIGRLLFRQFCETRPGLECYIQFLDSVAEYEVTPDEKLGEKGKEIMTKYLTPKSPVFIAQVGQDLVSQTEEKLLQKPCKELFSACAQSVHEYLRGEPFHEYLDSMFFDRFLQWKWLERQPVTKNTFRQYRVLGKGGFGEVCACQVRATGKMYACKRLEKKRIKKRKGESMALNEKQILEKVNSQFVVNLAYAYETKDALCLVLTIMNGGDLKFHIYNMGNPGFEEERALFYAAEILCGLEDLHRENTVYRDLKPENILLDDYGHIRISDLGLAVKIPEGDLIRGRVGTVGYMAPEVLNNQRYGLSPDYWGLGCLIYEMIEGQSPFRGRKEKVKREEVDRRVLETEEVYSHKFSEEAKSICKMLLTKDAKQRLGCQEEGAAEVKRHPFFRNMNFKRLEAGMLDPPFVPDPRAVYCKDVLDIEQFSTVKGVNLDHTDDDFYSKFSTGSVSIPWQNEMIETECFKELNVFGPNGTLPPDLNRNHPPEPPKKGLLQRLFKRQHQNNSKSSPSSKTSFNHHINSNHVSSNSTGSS
CSNK2A2 (CK2 alpha 2), sequence (P19784 whole entry, species assumed): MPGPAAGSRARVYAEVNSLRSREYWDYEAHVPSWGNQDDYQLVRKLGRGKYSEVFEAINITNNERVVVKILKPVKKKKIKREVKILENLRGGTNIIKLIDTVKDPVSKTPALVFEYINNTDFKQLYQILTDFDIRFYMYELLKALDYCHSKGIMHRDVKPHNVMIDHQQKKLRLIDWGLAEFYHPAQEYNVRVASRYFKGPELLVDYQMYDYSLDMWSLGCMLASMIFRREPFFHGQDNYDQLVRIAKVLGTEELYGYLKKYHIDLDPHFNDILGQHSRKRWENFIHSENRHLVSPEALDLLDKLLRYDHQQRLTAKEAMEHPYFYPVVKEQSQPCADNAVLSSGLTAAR
AMPK A1/B1/G1, sequence (Q13131 whole entry): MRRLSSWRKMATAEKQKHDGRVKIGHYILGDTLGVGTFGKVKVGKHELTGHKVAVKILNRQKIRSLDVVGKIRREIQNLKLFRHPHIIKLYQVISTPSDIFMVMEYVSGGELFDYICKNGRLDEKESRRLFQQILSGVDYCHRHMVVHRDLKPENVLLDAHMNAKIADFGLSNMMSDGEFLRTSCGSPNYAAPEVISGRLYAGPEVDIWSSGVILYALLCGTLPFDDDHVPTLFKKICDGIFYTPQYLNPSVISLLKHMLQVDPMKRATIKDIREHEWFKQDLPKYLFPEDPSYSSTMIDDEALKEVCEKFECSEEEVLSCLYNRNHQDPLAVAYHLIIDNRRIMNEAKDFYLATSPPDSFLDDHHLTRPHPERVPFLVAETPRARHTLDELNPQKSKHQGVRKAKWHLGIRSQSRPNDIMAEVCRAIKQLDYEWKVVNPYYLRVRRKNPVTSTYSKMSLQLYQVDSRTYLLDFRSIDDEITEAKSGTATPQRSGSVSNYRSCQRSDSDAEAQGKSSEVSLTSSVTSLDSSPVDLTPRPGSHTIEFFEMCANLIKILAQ
AMPK A1/B1/G1, sequence (Q9Y478 whole entry partner): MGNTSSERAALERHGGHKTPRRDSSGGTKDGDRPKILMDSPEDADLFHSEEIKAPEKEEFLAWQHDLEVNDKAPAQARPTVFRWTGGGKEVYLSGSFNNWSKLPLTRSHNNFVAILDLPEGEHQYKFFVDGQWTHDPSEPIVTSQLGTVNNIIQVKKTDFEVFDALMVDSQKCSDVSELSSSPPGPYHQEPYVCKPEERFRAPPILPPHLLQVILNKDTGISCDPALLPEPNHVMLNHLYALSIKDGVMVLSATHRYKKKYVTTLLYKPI
AMPK A1/B1/G1, sequence (P54619 whole entry partner): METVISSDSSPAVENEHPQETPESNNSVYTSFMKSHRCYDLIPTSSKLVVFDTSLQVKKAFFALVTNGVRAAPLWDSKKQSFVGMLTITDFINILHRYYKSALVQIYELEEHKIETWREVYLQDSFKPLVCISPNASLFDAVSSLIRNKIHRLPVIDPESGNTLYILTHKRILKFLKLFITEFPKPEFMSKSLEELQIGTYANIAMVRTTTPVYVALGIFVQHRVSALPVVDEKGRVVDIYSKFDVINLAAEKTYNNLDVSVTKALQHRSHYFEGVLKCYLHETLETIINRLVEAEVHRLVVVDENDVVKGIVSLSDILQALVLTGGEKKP
ROCK2, sequence (O75116 whole entry, species assumed): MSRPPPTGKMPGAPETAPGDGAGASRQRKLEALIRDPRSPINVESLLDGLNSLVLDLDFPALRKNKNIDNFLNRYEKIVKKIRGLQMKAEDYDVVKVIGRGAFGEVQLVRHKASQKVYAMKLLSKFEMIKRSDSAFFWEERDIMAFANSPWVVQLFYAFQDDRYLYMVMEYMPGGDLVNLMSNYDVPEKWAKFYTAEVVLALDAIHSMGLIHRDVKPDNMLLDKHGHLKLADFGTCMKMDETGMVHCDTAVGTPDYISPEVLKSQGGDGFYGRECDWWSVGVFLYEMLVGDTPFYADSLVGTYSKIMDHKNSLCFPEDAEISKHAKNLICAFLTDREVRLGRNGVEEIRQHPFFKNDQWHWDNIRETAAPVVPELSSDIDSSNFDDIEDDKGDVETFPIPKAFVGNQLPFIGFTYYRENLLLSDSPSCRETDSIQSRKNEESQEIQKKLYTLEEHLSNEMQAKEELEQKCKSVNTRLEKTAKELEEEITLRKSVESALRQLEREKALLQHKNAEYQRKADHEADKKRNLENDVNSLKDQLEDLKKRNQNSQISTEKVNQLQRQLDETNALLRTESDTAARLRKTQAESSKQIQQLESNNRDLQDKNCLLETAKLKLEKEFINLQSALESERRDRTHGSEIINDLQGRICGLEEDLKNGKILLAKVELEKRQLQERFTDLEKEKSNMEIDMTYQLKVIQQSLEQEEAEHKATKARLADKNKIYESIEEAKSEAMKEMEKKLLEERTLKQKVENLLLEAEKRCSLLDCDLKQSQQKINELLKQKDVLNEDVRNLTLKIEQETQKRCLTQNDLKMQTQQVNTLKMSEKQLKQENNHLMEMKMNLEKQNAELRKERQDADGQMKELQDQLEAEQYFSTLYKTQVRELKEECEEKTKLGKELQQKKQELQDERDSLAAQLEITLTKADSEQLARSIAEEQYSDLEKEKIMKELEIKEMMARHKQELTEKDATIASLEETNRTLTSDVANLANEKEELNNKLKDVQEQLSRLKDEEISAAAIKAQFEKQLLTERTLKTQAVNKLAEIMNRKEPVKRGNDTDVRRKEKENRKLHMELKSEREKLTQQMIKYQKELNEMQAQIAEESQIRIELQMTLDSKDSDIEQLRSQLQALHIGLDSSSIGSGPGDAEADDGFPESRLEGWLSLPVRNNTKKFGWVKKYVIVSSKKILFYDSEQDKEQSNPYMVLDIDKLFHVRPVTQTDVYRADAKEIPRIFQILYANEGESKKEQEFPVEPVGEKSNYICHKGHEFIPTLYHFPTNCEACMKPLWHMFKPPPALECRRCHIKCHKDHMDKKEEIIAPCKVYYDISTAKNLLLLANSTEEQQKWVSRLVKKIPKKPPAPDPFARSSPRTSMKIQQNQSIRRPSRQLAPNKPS
MAPKAPK2, sequence (P49137 whole entry, species assumed): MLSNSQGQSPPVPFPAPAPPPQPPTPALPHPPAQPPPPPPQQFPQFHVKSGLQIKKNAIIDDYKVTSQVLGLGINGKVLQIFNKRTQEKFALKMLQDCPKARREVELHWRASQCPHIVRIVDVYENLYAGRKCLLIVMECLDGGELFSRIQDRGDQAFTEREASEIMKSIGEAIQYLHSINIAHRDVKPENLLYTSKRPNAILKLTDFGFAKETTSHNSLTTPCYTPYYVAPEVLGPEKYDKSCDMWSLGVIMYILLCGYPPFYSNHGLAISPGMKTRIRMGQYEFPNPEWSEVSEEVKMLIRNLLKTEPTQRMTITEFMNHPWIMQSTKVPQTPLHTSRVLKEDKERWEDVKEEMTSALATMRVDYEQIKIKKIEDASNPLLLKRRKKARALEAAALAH
SRC, sequence (P12931 whole entry, looked up, species assumed): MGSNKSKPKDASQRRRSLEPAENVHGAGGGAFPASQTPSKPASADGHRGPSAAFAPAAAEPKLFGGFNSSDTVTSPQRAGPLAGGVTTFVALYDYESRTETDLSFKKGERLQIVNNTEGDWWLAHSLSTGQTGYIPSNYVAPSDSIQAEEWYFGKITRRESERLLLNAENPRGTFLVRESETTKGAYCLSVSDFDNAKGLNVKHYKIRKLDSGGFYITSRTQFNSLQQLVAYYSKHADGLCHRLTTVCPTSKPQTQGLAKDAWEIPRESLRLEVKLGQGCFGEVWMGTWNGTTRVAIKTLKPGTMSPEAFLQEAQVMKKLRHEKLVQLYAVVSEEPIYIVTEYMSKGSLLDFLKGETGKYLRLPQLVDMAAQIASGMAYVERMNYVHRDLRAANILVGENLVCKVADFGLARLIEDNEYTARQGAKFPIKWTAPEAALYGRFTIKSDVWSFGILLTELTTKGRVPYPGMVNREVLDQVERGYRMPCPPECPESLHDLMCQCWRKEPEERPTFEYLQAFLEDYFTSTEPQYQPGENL
PDK1 Direct kinase, sequence (O15530 whole entry): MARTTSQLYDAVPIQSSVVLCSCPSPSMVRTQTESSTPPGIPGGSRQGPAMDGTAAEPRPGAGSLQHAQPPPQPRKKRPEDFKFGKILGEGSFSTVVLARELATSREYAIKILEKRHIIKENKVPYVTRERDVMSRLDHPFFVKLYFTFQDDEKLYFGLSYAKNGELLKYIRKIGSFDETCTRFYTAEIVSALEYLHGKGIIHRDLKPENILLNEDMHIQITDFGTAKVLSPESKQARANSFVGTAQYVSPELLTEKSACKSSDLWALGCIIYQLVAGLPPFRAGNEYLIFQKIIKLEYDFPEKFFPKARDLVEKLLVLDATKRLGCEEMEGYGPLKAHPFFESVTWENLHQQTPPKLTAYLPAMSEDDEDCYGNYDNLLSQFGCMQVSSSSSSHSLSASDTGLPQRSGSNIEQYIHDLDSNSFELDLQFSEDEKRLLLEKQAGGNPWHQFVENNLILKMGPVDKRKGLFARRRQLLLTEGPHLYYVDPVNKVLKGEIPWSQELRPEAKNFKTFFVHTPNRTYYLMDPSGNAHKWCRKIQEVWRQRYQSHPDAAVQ

O=C(CNC(=O)c1cccn(Cc2ccc(F)c(F)c2)c1=O)Nc1ccc2c(c1)/C(=C/c1cnc[nH]1)C(=O)N2 [IB35, (Z)—N-(2-((3-((1H-imidazol-5-yl)methylene)-2-oxoindolin-5-yl)amino)-2-oxoethyl)-1-(3,4-difluorobenzyl)-2-oxo-1,2-dihydro pyridine-3-carboxamide]
inhibition of U87MG cell proliferation (U87MG cells; 24 h, higher effect observed (1 nM-10 μM tested)): 41%
IC50 (U87MG cells; read-out: IC50 U87MG): 450 ± 46.2 nM
inhibition at 10 µM (PDK1 Direct kinase): > 50%
IC50 (PDK1 Direct kinase; [2]): 112 nM
IC50 (PDK1 Direct kinase; read-out: PDK1 IC50): 112 nM
inhibition at 0.1 µM (ROCK2; read-out: % Inhibition 1): 3%
inhibition at 0.1 µM (ROCK2; read-out: % Inhibition 2): 1%
inhibition at 0.1 µM (ROCK2; read-out: % Inhibition Avg): 2%
inhibition at 0.1 µM (MAPKAPK2; read-out: % Inhibition 1): -2%
inhibition at 0.1 µM (MAPKAPK2; read-out: % Inhibition 2): 2%
inhibition at 0.1 µM (MAPKAPK2; read-out: % Inhibition Avg): 0%
inhibition at 0.1 µM (RPS6KB1 (p70S6K); read-out: % Inhibition 1): -3%
inhibition at 0.1 µM (RPS6KB1 (p70S6K); read-out: % Inhibition 2): -10%
inhibition at 0.1 µM (RPS6KB1 (p70S6K); read-out: % Inhibition Avg): -6%
inhibition at 0.1 µM (GRK5; read-out: % Inhibition 1): -7%
inhibition at 0.1 µM (GRK5; read-out: % Inhibition 2): 0%
inhibition at 0.1 µM (GRK5; read-out: % Inhibition Avg): -4%
inhibition at 0.1 µM (CDK2/cyclin A; read-out: % Inhibition 1): -1%
inhibition at 0.1 µM (CDK2/cyclin A; read-out: % Inhibition 2): 8%
inhibition at 0.1 µM (CDK2/cyclin A; read-out: % Inhibition Avg): 4%
inhibition at 0.1 µM (CSNK2A2 (CK2 alpha 2); read-out: % Inhibition 1): 4%
inhibition at 0.1 µM (CSNK2A2 (CK2 alpha 2); read-out: % Inhibition 2): 3%
inhibition at 0.1 µM (CSNK2A2 (CK2 alpha 2); read-out: % Inhibition Avg): 3%
inhibition at 0.1 µM (GSK3A (GSK3 alpha); read-out: % Inhibition 1): 43%
inhibition at 0.1 µM (GSK3A (GSK3 alpha); read-out: % Inhibition 2): 43%
inhibition at 0.1 µM (GSK3A (GSK3 alpha); read-out: % Inhibition Avg): 43%
inhibition at 0.1 µM (ABL1; read-out: % Inhibition 1): 17%
inhibition at 0.1 µM (ABL1; read-out: % Inhibition 2): 12%
inhibition at 0.1 µM (ABL1; read-out: % Inhibition Avg): 14%
inhibition at 0.1 µM ([1]; read-out: % Inhibition 1): 2%
inhibition at 0.1 µM ([1]; read-out: % Inhibition 2): 4%
inhibition at 0.1 µM ([1]; read-out: % Inhibition Avg): 3%
inhibition at 0.1 µM (MARK1 (MARK); read-out: % Inhibition 1): 20%
inhibition at 0.1 µM (MARK1 (MARK); read-out: % Inhibition 2): 13%
inhibition at 0.1 µM (MARK1 (MARK); read-out: % Inhibition Avg): 17%
inhibition at 0.1 µM (SRC; read-out: % Inhibition 1): 8%
inhibition at 0.1 µM (SRC; read-out: % Inhibition 2): 6%
inhibition at 0.1 µM (SRC; read-out: % Inhibition Avg): 7%
inhibition at 0.1 µM (CDK1/cyclin B; read-out: % Inhibition 1): 10%
inhibition at 0.1 µM (CDK1/cyclin B; read-out: % Inhibition 2): 3%
inhibition at 0.1 µM (CDK1/cyclin B; read-out: % Inhibition Avg): 6%
inhibition at 0.1 µM (CHEK1 (CHK1); read-out: % Inhibition 1): 10%
inhibition at 0.1 µM (CHEK1 (CHK1); read-out: % Inhibition 2): 2%
inhibition at 0.1 µM (CHEK1 (CHK1); read-out: % Inhibition Avg): 6%
inhibition at 0.1 µM (AMPK A1/B1/G1; read-out: % Inhibition 1): 8%
inhibition at 0.1 µM (AMPK A1/B1/G1; read-out: % Inhibition 2): 7%
inhibition at 0.1 µM (AMPK A1/B1/G1; read-out: % Inhibition Avg): 7%
inhibition at 0.1 µM (MAP2K2 (MEK2); read-out: % Inhibition 1): 13%
inhibition at 0.1 µM (MAP2K2 (MEK2); read-out: % Inhibition 2): 6%
inhibition at 0.1 µM (MAP2K2 (MEK2); read-out: % Inhibition Avg): 9%

O=C1Nc2ccc(NC(=O)[C@H](NC(=O)c3cccn(Cc4ccc(F)c(F)c4)c3=O)c3ccccc3)cc2/C1=C/c1ncc[nH]1 [SA23, (Z)—(R)—N-(2-((3-((1H-imidazol-2-yl)methylene)-2-oxoindolin-5-yl)amino)-2-oxo-1-phenylethyl)-1-(3,4-difluorobenzyl)-2-oxo-1,2-dihydropyridine-3-carboxamide]
IC50 (U87MG cells; read-out: IC50 U87MG): 1170 ± 100 nM
IC50 (U87MG cells; read-out: IC50 U87MG cell proliferation): 1170 ± 100 nM
inhibition at 10 µM (PDK1 Direct kinase): > 50%
IC50 (PDK1 Direct kinase; [2]): 1520 nM
IC50 (PDK1 Direct kinase; read-out: PDK1 IC50): 1520 nM
